In ChEMBL document CHEMBL4184310, “Structure-based design and structure-activity relationships of 1,2,3,4-tetrahydroisoquinoline derivatives as potential PDE4 inhibitors” (Bioorg Med Chem Lett, 2018):

Columns and labels:
[1] = Stability in rat plasma assessed as parent compound remaining after 4 hrs; format: ADME, cell-free; details: read-out: Stability
[2] = biological target: 3',5'-cyclic-AMP phosphodiesterase 4B (Homo sapiens, UniProt Q07343); test: Inhibition of human U937 cells-derived PDE4B using [3H]-cAMP as substrate after 30 mins
Sequence of 3',5'-cyclic-AMP phosphodiesterase 4B (Q07343 whole entry): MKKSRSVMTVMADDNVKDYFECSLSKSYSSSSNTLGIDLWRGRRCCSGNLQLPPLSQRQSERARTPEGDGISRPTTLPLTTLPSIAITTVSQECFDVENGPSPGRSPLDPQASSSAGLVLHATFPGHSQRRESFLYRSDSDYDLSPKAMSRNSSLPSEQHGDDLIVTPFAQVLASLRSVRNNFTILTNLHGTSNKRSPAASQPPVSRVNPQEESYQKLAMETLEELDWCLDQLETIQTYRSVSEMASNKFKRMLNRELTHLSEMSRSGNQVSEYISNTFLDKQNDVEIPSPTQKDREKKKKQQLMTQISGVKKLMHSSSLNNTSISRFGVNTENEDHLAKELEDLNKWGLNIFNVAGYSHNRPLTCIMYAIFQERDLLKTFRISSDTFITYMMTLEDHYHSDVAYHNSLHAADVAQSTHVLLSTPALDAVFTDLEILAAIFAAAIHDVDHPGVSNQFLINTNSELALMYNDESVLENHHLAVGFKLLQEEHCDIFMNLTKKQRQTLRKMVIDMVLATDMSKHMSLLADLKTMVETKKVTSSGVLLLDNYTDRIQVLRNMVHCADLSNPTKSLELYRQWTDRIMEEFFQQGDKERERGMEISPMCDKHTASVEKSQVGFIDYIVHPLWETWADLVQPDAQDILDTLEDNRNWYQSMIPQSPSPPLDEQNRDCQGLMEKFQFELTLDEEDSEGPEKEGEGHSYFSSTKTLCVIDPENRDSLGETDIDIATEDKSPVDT

[3] = Stability in rat plasma assessed as parent compound remaining after 8 hrs; format: ADME, cell-free; details: read-out: Stability
[4] = biological target: 3',5'-cyclic-AMP phosphodiesterase 4D (Homo sapiens, UniProt Q08499); test: Inhibition of human U937 cells-derived PDE4D using [3H]-cAMP as substrate after 30 mins
[5] = Inhibition of PDE4 in human PBMC assessed as reduction in LPS-stimulated TNFalpha release preincubated for 30 mins followed by LPS stimulation for 18 hrs by TR-FRET assay; format: cell-based
[6] = organism: Homo sapiens; test: Selectivity ratio of IC50 for human U937 cells-derived PDE4D to IC50 for human U937 cells-derived PDE4B
[7] = system: Rattus norvegicus; test: Anti-inflammatory activity in Sprague-Dawley rat model of LPS-induced asthma/COPD assessed as inhibition of neutrophilia in BALF at 10 mg/kg, po administered 30 mins prior to LPS challenge for 40 mins relative to control; format: functional
[8] = system: Mus musculus; test: Anti-inflammatory activity in Swiss albino mouse model of sepsis assessed as inhibition of LPS-induced TNFalpha release at 10 mg/kg, po administered 30 mins prior to LPS challenge for 90 mins by ELISA relative to control; format: functional
[9] = biological target: T1, cGMP-dependent 3',5'-cyclic phosphodiesterase (Homo sapiens, UniProt O00408); test: Inhibition of human PDE2A at 50 uM relative to control
[10] = biological target: T2, cAMP and cAMP-inhibited cGMP 3',5'-cyclic phosphodiesterase 10A (Homo sapiens, UniProt Q9Y233); test: Inhibition of human PDE10A2 at 50 uM relative to control
T2 sequence (Q9Y233 whole entry): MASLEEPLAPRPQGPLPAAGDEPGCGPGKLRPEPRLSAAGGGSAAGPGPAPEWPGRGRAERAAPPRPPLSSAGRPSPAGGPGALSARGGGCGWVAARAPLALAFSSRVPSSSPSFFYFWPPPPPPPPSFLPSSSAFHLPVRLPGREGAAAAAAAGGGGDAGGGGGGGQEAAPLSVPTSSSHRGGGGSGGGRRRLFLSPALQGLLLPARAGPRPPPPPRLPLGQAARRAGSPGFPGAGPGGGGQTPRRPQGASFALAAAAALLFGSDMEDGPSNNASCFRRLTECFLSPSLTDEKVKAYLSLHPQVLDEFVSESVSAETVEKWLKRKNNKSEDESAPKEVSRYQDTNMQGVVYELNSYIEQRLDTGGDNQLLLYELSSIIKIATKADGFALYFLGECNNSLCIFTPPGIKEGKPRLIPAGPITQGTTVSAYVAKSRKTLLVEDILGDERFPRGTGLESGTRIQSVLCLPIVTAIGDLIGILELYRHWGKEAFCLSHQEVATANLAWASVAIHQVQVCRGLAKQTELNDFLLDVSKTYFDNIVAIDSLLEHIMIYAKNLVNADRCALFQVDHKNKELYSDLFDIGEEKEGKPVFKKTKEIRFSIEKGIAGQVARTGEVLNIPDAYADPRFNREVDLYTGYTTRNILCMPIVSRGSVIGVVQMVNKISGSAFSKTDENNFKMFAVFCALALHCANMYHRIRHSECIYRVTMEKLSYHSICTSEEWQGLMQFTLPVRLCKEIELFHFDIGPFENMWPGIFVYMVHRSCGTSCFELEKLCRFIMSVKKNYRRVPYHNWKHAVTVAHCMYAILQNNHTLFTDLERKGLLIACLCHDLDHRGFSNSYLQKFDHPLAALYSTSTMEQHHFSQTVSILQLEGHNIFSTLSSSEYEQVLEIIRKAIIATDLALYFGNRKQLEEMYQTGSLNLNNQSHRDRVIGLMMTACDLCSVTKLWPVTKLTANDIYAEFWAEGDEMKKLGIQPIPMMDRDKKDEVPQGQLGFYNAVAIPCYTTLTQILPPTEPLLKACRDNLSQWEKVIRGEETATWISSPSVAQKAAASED

[11] = biological target: T3, High affinity cAMP-specific and IBMX-insensitive 3',5'-cyclic phosphodiesterase 8A (Homo sapiens, UniProt O60658); test: Inhibition of human PDE8A1
T3 sequence (O60658 whole entry): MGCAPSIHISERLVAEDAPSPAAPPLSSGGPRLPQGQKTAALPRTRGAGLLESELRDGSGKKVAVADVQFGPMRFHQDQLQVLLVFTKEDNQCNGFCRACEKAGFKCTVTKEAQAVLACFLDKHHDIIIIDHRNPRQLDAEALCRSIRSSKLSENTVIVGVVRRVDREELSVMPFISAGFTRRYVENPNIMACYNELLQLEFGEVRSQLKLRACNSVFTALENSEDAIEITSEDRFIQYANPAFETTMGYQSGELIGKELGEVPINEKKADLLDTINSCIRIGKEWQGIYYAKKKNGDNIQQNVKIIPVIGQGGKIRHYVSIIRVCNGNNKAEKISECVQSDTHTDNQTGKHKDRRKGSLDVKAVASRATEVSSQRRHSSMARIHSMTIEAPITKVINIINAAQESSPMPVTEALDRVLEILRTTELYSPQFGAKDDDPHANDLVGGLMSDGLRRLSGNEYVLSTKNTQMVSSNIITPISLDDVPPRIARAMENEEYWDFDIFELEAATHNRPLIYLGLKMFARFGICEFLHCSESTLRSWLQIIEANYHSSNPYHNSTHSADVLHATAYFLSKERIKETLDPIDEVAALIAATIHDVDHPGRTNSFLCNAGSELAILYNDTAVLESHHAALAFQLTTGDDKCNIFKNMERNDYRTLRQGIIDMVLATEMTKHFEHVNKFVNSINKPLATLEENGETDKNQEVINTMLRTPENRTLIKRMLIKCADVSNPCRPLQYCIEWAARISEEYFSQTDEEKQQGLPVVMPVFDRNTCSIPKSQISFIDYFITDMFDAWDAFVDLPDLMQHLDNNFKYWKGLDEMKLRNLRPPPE

[12] = biological target: T4, cGMP-inhibited 3',5'-cyclic phosphodiesterase 3B (Homo sapiens, UniProt Q13370); test: Inhibition of human PDE3B at 50 uM relative to control
[13] = biological target: T5, High affinity cGMP-specific 3',5'-cyclic phosphodiesterase 9A (Homo sapiens, UniProt O76083); test: Inhibition of human PDE9A2 at 50 uM relative to control
T5 sequence (O76083 whole entry): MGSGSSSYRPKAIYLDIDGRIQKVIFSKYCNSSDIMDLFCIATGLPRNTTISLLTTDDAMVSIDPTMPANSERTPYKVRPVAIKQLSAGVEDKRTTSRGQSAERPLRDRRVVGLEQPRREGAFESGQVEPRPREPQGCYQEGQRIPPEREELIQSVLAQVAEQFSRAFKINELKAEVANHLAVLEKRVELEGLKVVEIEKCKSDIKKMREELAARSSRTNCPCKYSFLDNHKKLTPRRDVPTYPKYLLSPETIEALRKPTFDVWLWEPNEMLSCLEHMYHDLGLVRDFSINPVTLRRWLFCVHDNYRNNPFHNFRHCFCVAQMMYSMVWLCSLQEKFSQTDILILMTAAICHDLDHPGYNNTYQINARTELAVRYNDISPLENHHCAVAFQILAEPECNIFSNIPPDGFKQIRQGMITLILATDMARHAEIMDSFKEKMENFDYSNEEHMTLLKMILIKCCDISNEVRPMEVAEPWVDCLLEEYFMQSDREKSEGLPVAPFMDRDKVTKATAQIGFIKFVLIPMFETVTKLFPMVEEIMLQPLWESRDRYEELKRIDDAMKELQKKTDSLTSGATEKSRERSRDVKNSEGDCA

[14] = biological target: T6, Dual specificity calcium/calmodulin-dependent 3',5'-cyclic nucleotide phosphodiesterase 1A (Homo sapiens, UniProt P54750); test: Inhibition of human PDE1A at 50 uM relative to control
T6 sequence (P54750 whole entry): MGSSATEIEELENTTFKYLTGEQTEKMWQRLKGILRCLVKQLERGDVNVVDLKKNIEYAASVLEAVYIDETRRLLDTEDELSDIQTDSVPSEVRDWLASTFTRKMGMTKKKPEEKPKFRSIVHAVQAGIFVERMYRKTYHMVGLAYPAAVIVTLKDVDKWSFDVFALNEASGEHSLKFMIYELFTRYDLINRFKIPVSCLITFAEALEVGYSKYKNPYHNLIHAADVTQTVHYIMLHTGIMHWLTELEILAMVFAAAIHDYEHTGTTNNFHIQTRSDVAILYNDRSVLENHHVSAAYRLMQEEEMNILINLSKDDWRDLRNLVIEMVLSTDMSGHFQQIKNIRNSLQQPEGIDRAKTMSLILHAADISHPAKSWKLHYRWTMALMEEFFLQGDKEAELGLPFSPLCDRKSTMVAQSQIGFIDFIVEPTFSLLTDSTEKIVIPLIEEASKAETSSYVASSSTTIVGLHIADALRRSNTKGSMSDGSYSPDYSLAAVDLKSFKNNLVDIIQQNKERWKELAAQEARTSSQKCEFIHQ

[15] = biological target: T7, cGMP-specific 3',5'-cyclic phosphodiesterase (Homo sapiens, UniProt O76074); test: Inhibition of human PDE5A
[16] = biological target: T1, cGMP-dependent 3',5'-cyclic phosphodiesterase; test: Inhibition of human PDE2A
[17] = biological target: T8, Dual 3',5'-cyclic-AMP and -GMP phosphodiesterase 11A (Homo sapiens, UniProt Q9HCR9); test: Inhibition of human PDE11A
[18] = biological target: T3, High affinity cAMP-specific and IBMX-insensitive 3',5'-cyclic phosphodiesterase 8A; test: Inhibition of human PDE8A1 at 50 uM relative to control
[19] = biological target: T5, High affinity cGMP-specific 3',5'-cyclic phosphodiesterase 9A; test: Inhibition of human PDE9A2
[20] = biological target: T8, Dual 3',5'-cyclic-AMP and -GMP phosphodiesterase 11A; test: Inhibition of human PDE11A at 50 uM relative to control
[21] = biological target: T4, cGMP-inhibited 3',5'-cyclic phosphodiesterase 3B; test: Inhibition of human PDE3B
[22] = biological target: T9, Cone cGMP-specific 3',5'-cyclic phosphodiesterase subunit alpha' (Homo sapiens, UniProt P51160); test: Inhibition of human PDE6C at 50 uM relative to control
T9 sequence (P51160 whole entry): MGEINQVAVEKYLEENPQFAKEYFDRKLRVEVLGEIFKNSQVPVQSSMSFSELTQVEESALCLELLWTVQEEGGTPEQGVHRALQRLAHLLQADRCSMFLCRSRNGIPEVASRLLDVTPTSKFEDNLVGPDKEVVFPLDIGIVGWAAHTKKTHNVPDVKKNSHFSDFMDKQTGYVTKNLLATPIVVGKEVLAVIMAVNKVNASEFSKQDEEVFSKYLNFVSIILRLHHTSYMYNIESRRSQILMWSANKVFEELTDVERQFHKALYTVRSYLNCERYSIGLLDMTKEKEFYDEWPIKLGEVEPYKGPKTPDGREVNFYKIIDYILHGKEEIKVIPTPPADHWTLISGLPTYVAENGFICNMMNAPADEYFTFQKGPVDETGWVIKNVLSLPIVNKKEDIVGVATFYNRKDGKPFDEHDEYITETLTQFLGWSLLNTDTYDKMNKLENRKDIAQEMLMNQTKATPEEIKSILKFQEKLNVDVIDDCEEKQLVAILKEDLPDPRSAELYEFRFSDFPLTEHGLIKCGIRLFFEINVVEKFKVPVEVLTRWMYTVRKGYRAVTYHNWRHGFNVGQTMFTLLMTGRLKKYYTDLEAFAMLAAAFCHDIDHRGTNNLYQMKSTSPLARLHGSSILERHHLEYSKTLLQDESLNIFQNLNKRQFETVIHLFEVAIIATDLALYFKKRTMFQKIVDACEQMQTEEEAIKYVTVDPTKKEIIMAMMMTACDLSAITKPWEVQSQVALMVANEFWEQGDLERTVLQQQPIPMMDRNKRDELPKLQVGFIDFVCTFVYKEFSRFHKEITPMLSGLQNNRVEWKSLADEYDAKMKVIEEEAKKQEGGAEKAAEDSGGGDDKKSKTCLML

[23] = biological target: T6, Dual specificity calcium/calmodulin-dependent 3',5'-cyclic nucleotide phosphodiesterase 1A; test: Inhibition of human PDE1A
[24] = biological target: T10, High affinity 3',5'-cyclic-AMP phosphodiesterase 7A (Homo sapiens, UniProt Q13946); test: Inhibition of human PDE7A at 50 uM relative to control
[25] = biological target: T2, cAMP and cAMP-inhibited cGMP 3',5'-cyclic phosphodiesterase 10A; test: Inhibition of human PDE10A2
[26] = biological target: T7, cGMP-specific 3',5'-cyclic phosphodiesterase; test: Inhibition of human PDE5A at 50 uM relative to control
[27] = organism: Homo sapiens; test: Potency index, ratio of rolipram IC50 to compound IC50 for inhibition of PDE4 in human PBMC
[28] = biological target: T10, High affinity 3',5'-cyclic-AMP phosphodiesterase 7A; test: Inhibition of human PDE7A
[29] = biological target: T9, Cone cGMP-specific 3',5'-cyclic phosphodiesterase subunit alpha'; test: Inhibition of human PDE6C

COc1cc2c(cc1OC1CCCC1)CN(C(=O)c1ccc(OC(F)(F)F)cc1)C(C(=O)OCc1ccccc1)C2 (centres undefined)
remaining at 4 h [1]: 84.2% | IC50 [2]: > 50 µM | remaining at 8 h [3]: 71.6%

CNC(=O)C1Cc2cc(OC)c(OC3CCCC3)cc2CN1C(=O)c1ccc(OC(F)(F)F)cc1 (centres undefined)
IC50 [2]: 16.4 µM

COc1cc2c(cc1OC1CCCC1)CN(C(=O)c1ccc(Cl)cc1)CC2
IC50 [2]: 18.4 µM | IC50 [4]: 92.6 µM

COc1cc2c(cc1OC1CCCC1)CN(C(=O)c1ccc(OC(F)(F)F)cc1)C(C(=O)OC1CCCC1)C2 (centres undefined)
IC50 [2]: > 50 µM

CCN(CC)C(=O)C1Cc2cc(OC)c(OC3CCCC3)cc2CN1C(=O)c1ccc(OC(F)(F)F)cc1 (centres undefined)
IC50 [2]: 12.7 µM

COc1ccc(S(=O)(=O)N2CCc3cc(OC)c(OC4CCCC4)cc3C2)cc1
IC50 [5]: 29.7 µM | IC50 [2]: 3.1 µM | IC50 [4]: 43.6 µM

CCOC(=O)C1Cc2cc(OC)c(OC3CCCC3)cc2CN1C(=O)c1ccc(OC(F)(F)F)cc1 (centres undefined)
remaining at 4 h [1]: 73.7% | IC50 [5]: 12.6 µM | IC50 [2]: 1.62 µM | Ratio IC50 [6]: 21 | remaining at 8 h [3]: 54.9% | IC50 [4]: 32.7 µM

COc1ccc(C(=O)N2CCc3cc(OC)c(OC4CCCC4)cc3C2)cc1OC
IC50 [5]: 28.6 µM | IC50 [2]: 2.85 µM | IC50 [4]: 18.3 µM

COc1ccc(C2CNC(=O)C2)cc1OC1CCCC1 (centres undefined) [ROLIPRAM]
inhibition in vivo at 10 mg/kg [7]: 32.5% | inhibition in vivo at 10 mg/kg [8]: 41.2%

O=C(Nc1c(Cl)cncc1Cl)c1ccc(OC(F)F)c(OCC2CC2)c1 [ROFLUMILAST]
IC50 [5]: 1.21 µM | inhibition in vivo at 10 mg/kg [7]: 97.6% | inhibition in vivo at 10 mg/kg [8]: 98.8%

COc1cc2c(cc1OC1CCCC1)CN(C(=O)c1ccc(OC(F)(F)F)cc1)CC2
IC50 [5]: 9.85 µM | IC50 [2]: 1.05 µM | IC50 [4]: 6.5 µM

COc1cc2c(cc1OC1CCCC1)CN(C(=O)c1ccc(O)cc1)CC2
IC50 [5]: 48.3 µM | IC50 [2]: 3.25 µM | IC50 [4]: 16.3 µM

COc1ccc(C(=O)N2CCc3cc(OC)c(OC4CCCC4)cc3C2)cc1O
IC50 [5]: 36.6 µM | IC50 [2]: 3.42 µM | IC50 [4]: 18.6 µM

COc1cc2c(cc1OC1CCCC1)CN(S(=O)(=O)c1ccc(Cl)cc1)CC2
IC50 [2]: 11 µM | IC50 [4]: 134 µM

COC(=O)C1Cc2cc(OC)c(OC3CCCC3)cc2CN1C(=O)c1ccc(OC(F)(F)F)cc1 (centres undefined)
remaining at 4 h [1]: 72.8% | inhibition [9]: 9% | inhibition [10]: 3% | IC50 [11]: > 100 µM | IC50 [5]: 2.12 µM | IC50 [2]: 0.88 µM | inhibition [12]: 5% | Ratio IC50 [6]: 21 | inhibition [13]: 6% | inhibition [14]: 4% | inhibition in vivo at 10 mg/kg [7]: 45.3% | IC50 [15]: > 100 µM | IC50 [16]: > 100 µM | IC50 [17]: > 100 µM | remaining at 8 h [3]: 51.8% | inhibition [18]: 13% | IC50 [19]: > 100 µM | inhibition [20]: 6% | IC50 [21]: > 100 µM | inhibition [22]: 7% | IC50 [23]: > 100 µM | inhibition [24]: 2% | IC50 [25]: > 100 µM | inhibition [26]: 12% | Ratio IC50 [27]: 5 | IC50 [4]: 18.4 µM | IC50 [28]: > 100 µM | IC50 [29]: > 100 µM | inhibition in vivo at 10 mg/kg [8]: 50.2%

COc1cc2c(cc1OC1CCCC1)CN(C(=O)c1ccc(OC(F)(F)F)cc1)C(C(=O)O)C2 (centres undefined)
IC50 [5]: 69.3 µM | IC50 [2]: 8.35 µM

CCCCCOC(=O)C1Cc2cc(OC)c(OC3CCCC3)cc2CN1C(=O)c1ccc(OC(F)(F)F)cc1 (centres undefined)
IC50 [2]: > 50 µM

COc1cc2c(cc1OC1CCCC1)CN(C(=O)c1ccc(OC(F)(F)F)cc1)C(C(=O)N(C)C)C2 (centres undefined)
IC50 [2]: 8.05 µM

COc1ccc(C(=O)N2CCc3cc(OC)c(OC4CCCC4)cc3C2)cc1
IC50 [5]: 31.3 µM | IC50 [2]: 2.38 µM | IC50 [4]: 13.3 µM

COc1cccc(C(=O)N2CCc3cc(OC)c(OC4CCCC4)cc3C2)c1
IC50 [2]: 19.7 µM

COc1cc2c(cc1OC1CCCC1)CN(S(=O)(=O)c1ccc(NC(C)=O)cc1)CC2
inhibition [9]: 10% | inhibition [10]: 3% | IC50 [11]: > 100 µM | IC50 [5]: 5.75 µM | IC50 [2]: 0.95 µM | inhibition [12]: 4% | inhibition [13]: 4% | inhibition [14]: 3% | inhibition in vivo at 10 mg/kg [7]: 37.1% | IC50 [15]: > 100 µM | IC50 [16]: > 100 µM | IC50 [17]: > 100 µM | inhibition [18]: 11% | IC50 [19]: > 100 µM | inhibition [20]: 7% | IC50 [21]: > 100 µM | inhibition [22]: 8% | IC50 [23]: > 100 µM | inhibition [24]: 2% | IC50 [25]: > 100 µM | inhibition [26]: 10% | IC50 [4]: 11.6 µM | IC50 [28]: > 100 µM | IC50 [29]: > 100 µM | inhibition in vivo at 10 mg/kg [8]: 44.3%

COc1cc2c(cc1OC1CCCC1)CN(C(=O)c1cccc(Cl)c1)CC2
IC50 [2]: 20.5 µM
